Patent US20250074892A1, “CARBONYL BRIDGED HETEROCYCLIC COMPOUND, AND COMPOSITION AND APPLICATION THEREOF” (BEIJING SCITECH-MQ PHARMACEUTICALS LIMITED, priority 2022, published 2025)
Read-outs that look alike come from different tables or passages of the source.

Legend:
HT29 cells = experiment: Inhibition of cell necrosis (CCK8 method), HT29 cells; assay type: cell-based, human; details: Homo sapiens, HT-29, 16 h, HT29, Human TNF-α/AT-406/Z-VAD-FMK, 16 hours, CCK8
Procedure, shortened: (§1)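 HT29 (1.2×10^4/well) and L929 (2.0×10^4/well) cells were pretreated 30 min with compound, 9-point 4-fold series from 10 μM in duplicate. Necrosis was induced with human TNF-α 20 ng/mL, AT-406 […] and Z-VAD-FMK 20 μM for 16 h (HT29), or murine TNF-α 20 ng/mL and Z-VAD-FMK 25 μM for 4-8 h (L929). CCK8 viability; IC50 from dose-effect curve.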

L929 cells = experiment: Inhibition of cell necrosis (CCK8 method), L929 cells; assay type: cell-based, mouse; details: Mus musculus, L929, L929, Murine TNF-α/Z-VAD-FMK, 4-8 hours, CCK8
Procedure, shortened: as §1

[1] = Rat PK&BBB (pharmacokinetics and brain penetration); assay type: in vivo, SD rats; details: for clearance: read-out: Cl—obs; for bioavailability: PO 30 mg/kg vs IV 3 mg/kg; for Kp at 2 h / concentration at 2 h / concentration at 0 h / concentration at 0.083 h / concentration at 0.25 h / concentration at 0.5 h / concentration at 1 h / concentration at 4 h / concentration at 7 h / concentration at 24 h: Sprague-Dawley; for Kp at 2 h: brain / whole blood, read-out: Brain/blood ratio
Protocol: (§2) In this assay, the pharmacokinetic characteristics and ability to penetrate the blood-brain barrier of the compounds of the present application were assayed after administration of some of the compounds of the present application to SD rats, CD-1 mice or beagle dogs by single oral administration and intravenous injection.
(§3) 1. Intravenous (IV) injection group: an appropriate amount of the assay compound was weighed, and completely dissolved in an appropriate volume of vehicle. The mixture was stirred, vortexed and/or sonicated. Once a solution was obtained, the vehicle was gradually added to a final volume to reach the target concentration. The solution was vortexed, and sonicated to obtain a homogeneous solution. The solution was filtered through a 0.22 m PVDF membrane.
as §3, with “2. Oral (PO)” for “1. Intravenous (IV) injection”, “solution.” for “solution. The solution was filtered through a 0.22 m PVDF membrane.”
(§4) Meanwhile, the IV group was not fasted and the PO group was fasted overnight (>12 hrs) and given food 2 hrs after drug administration. All animals had free access to water. The dosing regimen and pharmacokinetic sampling regimen are given in Table 10 and Table 11 below, respectively.
Rats were administered according to the above protocol, and blood and brain tissue samples were collected and processed at predetermined time points (collection and processing were performed according to conventional methods in the art).
(§5) The brain was weighed and homogenized by adding 4 times of ultrapure water. Six times volume of acetonitrile was added respectively to the whole blood samples and brain homogenate (20 times volume of acetonitrile was added to the whole blood sample of mouse PK). The mixture was vortexed for 1 min and then centrifuged at 4° C., 4500 rpm for 15 min. According to the instrument response, the supernatant was diluted with diluent and the sample was analyzed by LC/MS.
(§6) Pharmacokinetic parameters were calculated using WinNonlin software. The following pharmacokinetic parameters were calculated if appropriate plasma/whole blood drug concentration-time data were available: CL (clearance); Vd (apparent volume of distribution); T1/2 (elimination half-life time); Cmax (peak concentration); Tmax (time to peak); AUC (area under plasma drug concentration-time curve); MRT (mean retention time); F % (bioavailability).

[2] = Beagle PK (pharmacokinetics); assay type: in vivo, beagle dogs; details: whole blood, Beagle dog
Protocol: as §2, §3
as §3, with “2. Oral (PO)” for “1. Intravenous (IV) injection”, “solution.” for “solution. The solution was filtered through a 0.22 m PVDF membrane.”
as §4, §5, §6

[3] = PO 30 mg/kg, 2 h after administration
[4] = rat, brain, po, 30 mg/kg, PO 30 mg/kg, 2 h after administration, read-out: Brain concentration
[5] = rat, whole blood, iv, 3 mg/kg, IV 3 mg/kg, read-out: Blood drug concentration
[6] = rat, whole blood, iv, 3 mg/kg, IV 3 mg/kg, 2 hr, read-out: Blood drug concentration
[7] = rat, whole blood, po, 30 mg/kg, PO 30 mg/kg, read-out: Blood drug concentration
[8] = rat, whole blood, po, 30 mg/kg, PO 30 mg/kg, 2 hr, read-out: Blood drug concentration
[9] = rat, whole blood, po, 30 mg/kg, PO 30 mg/kg, 24 hr, read-out: Blood drug concentration
[10] = rat, whole blood, po, 30 mg/kg, PO 30 mg/kg, whole blood, 2 h after administration, read-out: Blood drug concentration
[11] = IV 1 mg/kg, read-out: Blood drug concentration
[12] = PO 3 mg/kg, read-out: Blood drug concentration

## O=C(C1CCN(c2cc(-c3cc(OCCCO)ccc3F)ccn2)CC1)N1N=CC[C@H]1c1cc(F)cc(F)c1 (racemic) [Example 40]
HT29 cells
  IC50: ≤ 10 nM
L929 cells
  IC50: 10 to 50 nM
[1]; SD, whole blood, IV 3 mg/kg
  AUC(0-inf): 592 ± 57 ng·h/mL
  AUC(0-t): 588 ± 56 ng·h/mL
  Vd: 7.84 ± 0.5 L/kg
  half-life: 1.07 ± 0.08 h
  clearance: 85 ± 8.4 mL/min/kg
[1]; SD, whole blood, PO 30 mg/kg
  AUC(0-inf): 1970 ± 768 ng·h/mL
  AUC(0-t): 1900 ± 868 ng·h/mL
  Cmax: 581 ± 228 ng/mL
  Tmax: 1.17 ± 0.76 h
  half-life: 2.84 ± 0.46 h
[1]; SD, whole blood
  bioavailability: 33.2 ± 13%
[1]; [3]
  Kp at 2 h: 1.13
[1]; [4]
  concentration at 2 h: 309 ng/g
[1]; [5]
  concentration at 0 h: 0 ng/mL
  concentration at 0.083 h: 865 ± 45 ng/mL
  concentration at 0.25 h: 496 ± 33 ng/mL
  concentration at 0.5 h: 295 ± 29 ng/mL
  concentration at 1 h: 119 ± 14 ng/mL
  concentration at 4 h: 13.2 ± 5 ng/mL
  concentration at 7 h: 2.37 ± 0.77 ng/mL
[1]; [6]
  concentration at 2 h: 61.9 ± 8.5 ng/mL
[1]; [7]
  concentration at 0 h: 0 ng/mL
  concentration at 0.25 h: 185 ± 86 ng/mL
  concentration at 0.5 h: 416 ± 92 ng/mL
  concentration at 1 h: 547 ± 248 ng/mL
  concentration at 4 h: 109 ± 99 ng/mL
  concentration at 7 h: 59.8 ± 34.9 ng/mL
[1]; [8]
  concentration at 2 h: 372 ± 258 ng/mL
[1]; [9]
  concentration at 24 h: 0.93 ng/mL
[1]; [10]
  concentration at 2 h: 274 ng/mL

## CC(C)(O)COc1ccc(F)c(-c2ccnc(N3CCC(C(=O)N4N=CC[C@H]4c4cc(F)cc(F)c4)CC3)c2)c1 (racemic) [Example 42]
HT29 cells
  IC50: ≤ 10 nM
L929 cells
  IC50: ≤ 10 nM
[1]; SD, rat, whole blood, iv, 3 mg/kg, IV 3 mg/kg, 24 hr, read-out: Blood drug concentration
  concentration at 24 hr: 19.9 ± 2.4 ng/mL
[1]; SD, whole blood, IV 3 mg/kg
  AUC(0-inf): 4140 ± 234 ng·h/mL
  AUC(0-t): 3990 ± 225 ng·h/mL
  Vd: 5.5 ± 0.38 L/kg
  half-life: 5.25 ± 0.14 h
  clearance: 12.1 ± 0.7 mL/min/kg
[1]; SD, whole blood, PO 30 mg/kg
  AUC(0-inf): 26500 ± 3060 ng·h/mL
  AUC(0-t): 24200 ± 2750 ng·h/mL
  Cmax: 1580 ± 205 ng/mL
  Tmax: 6 ± 1.73 h
  half-life: 6.33 ± 1.56 h
[1]; SD, whole blood
  bioavailability: 64 ± 7.4%
[1]; [3]
  Kp at 2 h: 0.915
[1]; [4]
  concentration at 2 h: 1970 ng/g
[1]; [5]
  concentration at 0 h: 0 ng/mL
  concentration at 0.083 h: 798 ± 302 ng/mL
  concentration at 0.25 h: 565 ± 166 ng/mL
  concentration at 0.5 h: 445 ± 70 ng/mL
  concentration at 1 h: 368 ± 53 ng/mL
  concentration at 4 h: 269 ± 25 ng/mL
  concentration at 7 h: 199 ± 23 ng/mL
[1]; [6]
  concentration at 2 h: 303 ± 39 ng/mL
[1]; [7]
  concentration at 0 h: 0 ng/mL
  concentration at 0.25 h: 266 ± 89 ng/mL
  concentration at 0.5 h: 654 ± 74 ng/mL
  concentration at 1 h: 1250 ± 67 ng/mL
  concentration at 4 h: 1380 ± 387 ng/mL
  concentration at 7 h: 1550 ± 153 ng/mL
[1]; [8]
  concentration at 2 h: 1300 ± 178 ng/mL
[1]; [9]
  concentration at 24 h: 237 ± 95 ng/mL
[1]; [10]
  concentration at 2 h: 2150 ng/mL
[2]; IV 1 mg/kg
  AUC(0-inf): 3380 ± 342 ng·h/mL
  AUC(0-t): 2920 ± 268 ng·h/mL
  Vd: 3.7 ± 1.05 L/kg
  half-life: 8.72 ± 3 h
[2]; [11]
  concentration at 0 hr: 0 ng/mL
  concentration at 0.25 hr: 451 ± 77 ng/mL
  concentration at 0.5 h: 390 ± 13 ng/mL
  concentration at 1 h: 253 ± 49 ng/mL
  concentration at 2 h: 236 ± 69 ng/mL
  concentration at 4 h: 176 ± 29 ng/mL
  concentration at 7 h: 133 ± 14 ng/mL
[2]; IV 1 mg/kg, 0.083 hr, read-out: Blood drug concentration
  concentration at 0.083 hr: 535 ± 62 ng/mL
[2]; IV 1 mg/kg, 24 hr, read-out: Blood drug concentration
  concentration at 24 hr: 32.9 ± 13.5 ng/mL
[2]; IV 1 mg/kg, read-out: Cl—obs
  clearance: 4.97 ± 0.51 mL/min/kg
[2]; PO 3 mg/kg
  AUC(0-inf): 18000 ± 939 ng·h/mL
  AUC(0-t): 11200 ± 2940 ng·h/mL
  Cmax: 1510 ± 396 ng/mL
  Tmax: 1.17 ± 0.76 h
  half-life: 18.1 ± 5 h
[2]; PO 3 mg/kg vs IV 1 mg/kg
  bioavailability: 127 ± 28%
[2]; [12]
  concentration at 0 hr: 0 ng/mL
  concentration at 0.25 hr: 645 ± 362 ng/mL
  concentration at 0.5 h: 1320 ± 406 ng/mL
  concentration at 1 h: 1170 ± 696 ng/mL
  concentration at 2 h: 1320 ± 320 ng/mL
  concentration at 4 h: 560 ± 231 ng/mL
  concentration at 7 h: 406 ± 145 ng/mL
[2]; PO 3 mg/kg, 24 hr, read-out: Blood drug concentration
  concentration at 24 h: 260 ± 19 ng/mL
